Reference: publication PMC11045764, “The dual coding of a single sex pheromone receptor in Asian honeybee Apis cerana” (Communications Biology, 2024)

What was measured:
AcerOr11 [1] = tested on: T1, AcerOr11; test: two-electrode voltage clamp in Xenopus oocytes (inverse currents; also inhibits 9-ODA-evoked currents); format: cell-based, Apis cerana
T1 construct: gene Or11; AcerOr11 co-expressed with AcerOrco in Xenopus laevis oocytes; with AcerOrco

AcerOr11 [2] = tested on: T1, AcerOr11; test: two-electrode voltage clamp in Xenopus oocytes (agonist, dose-response and I-V curves); format: cell-based, Apis cerana

COC(=O)c1ccc(O)cc1 [HOB, methyl p-hydroxybenzoate]
EC50 (AcerOr11 [1]): 150 nM

CC(=O)CCCCC/C=C/C(=O)O [9-ODA, 9-oxo-(E)-2-decenoic acid]
EC50 (AcerOr11 [2]): 0.35 nM
